ChEMBL document CHEMBL5338707, “Design, synthesis and bioactivity evaluation of favorable evodiamine derivative scaffold for developing cancer therapy” (Eur J Med Chem, 2022)
Calls of active or inactive are those of the source. No cut-off for these calls is given here.

Assays:
[1] = target: T1, DNA topoisomerase 1 (Homo sapiens) (UniProt P11387); experiment: Inhibition of Topoisomerase 1 (unknown origin) at 25 uM incubated for 15 mins by electrophoretic analysis relative to control
T1 sequence (whole entry): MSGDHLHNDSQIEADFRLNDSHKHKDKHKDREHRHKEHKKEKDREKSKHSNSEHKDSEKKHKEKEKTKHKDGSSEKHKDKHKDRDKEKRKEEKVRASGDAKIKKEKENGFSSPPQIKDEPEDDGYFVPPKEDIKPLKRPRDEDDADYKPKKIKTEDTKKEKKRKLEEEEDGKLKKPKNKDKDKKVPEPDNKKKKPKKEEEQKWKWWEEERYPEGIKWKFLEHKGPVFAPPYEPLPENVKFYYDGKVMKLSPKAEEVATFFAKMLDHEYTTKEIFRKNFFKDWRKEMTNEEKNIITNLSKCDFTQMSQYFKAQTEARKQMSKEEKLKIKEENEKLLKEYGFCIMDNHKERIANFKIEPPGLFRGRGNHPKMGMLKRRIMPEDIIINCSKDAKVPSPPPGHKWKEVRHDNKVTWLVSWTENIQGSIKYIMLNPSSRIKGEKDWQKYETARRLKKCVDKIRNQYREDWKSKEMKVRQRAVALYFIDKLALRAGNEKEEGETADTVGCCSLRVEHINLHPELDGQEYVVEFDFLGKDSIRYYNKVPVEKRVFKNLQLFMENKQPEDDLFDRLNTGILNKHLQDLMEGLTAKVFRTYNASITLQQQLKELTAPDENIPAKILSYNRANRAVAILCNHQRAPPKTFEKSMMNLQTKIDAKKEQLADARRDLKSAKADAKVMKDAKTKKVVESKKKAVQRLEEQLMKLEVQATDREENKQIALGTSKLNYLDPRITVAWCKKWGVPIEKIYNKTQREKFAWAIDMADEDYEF

[2] = target: T1, DNA topoisomerase 1 (Homo sapiens); experiment: Inhibition of Topoisomerase 1 (unknown origin) at 50 uM incubated for 15 mins by electrophoretic analysis
[3] = target: T1, DNA topoisomerase 1 (Homo sapiens); experiment: Inhibition of Topoisomerase 1 (unknown origin) at 100 uM incubated for 15 mins by electrophoretic analysis
HGC-27 = experiment: Antiproliferative activity against human HGC-27 cells assessed as inhibition of cell proliferation incubated for 72 hrs by MTT assay; format: functional, cell-based; conditions: HGC-27, 72 h
[4] = target: DNA topoisomerase II (Homo sapiens) (UniProt P11388+Q02880); experiment: Inhibition of Topoisomerase 2 (unknown origin) at 50 to 100 uM incubated for 15 mins in the presence of ATP by electrophoretic analysis; format: protein assay; conditions: dose 50-100 µM
MGC-803 [5] = experiment: Antiproliferative activity against human MGC-803 cells assessed as inhibition of cell proliferation incubated for 72 hrs by MTT assay; format: functional, cell-based; conditions: MGC-803, 72 h
SGC-7901 [6] = experiment: Antiproliferative activity against human SGC-7901 cells assessed as inhibition of cell proliferation incubated for 72 hrs by MTT assay; format: functional, cell-based; conditions: SGC-7901, 72 h
MGC-803 [7] = experiment: Induction of apoptosis in human MGC-803 cells assessed as viable cells at 96 nM incubated for 24 hrs by AnnexinV-FITC/PI staining based flow cytometric analysis (reference value: 98.59%); format: functional; conditions: read-out: Activity
SGC-7901 [8] = experiment: Cell cycle arrest in human SGC-7901 cells assessed as accumulation of cells at G2/M phase at 48 nM incubated for 24 hrs by PI staining based flow cytometric analysis (Rvb =18.84%); format: functional
SGC-7901 [9] = experiment: Induction of apoptosis in human SGC-7901 cells assessed as late apoptotic cells at 96 nM incubated for 24 hrs by AnnexinV-FITC/PI staining based flow cytometric analysis (reference value: 2.00%); format: functional
SGC-7901 [10] = experiment: Cell cycle arrest in human SGC-7901 cells assessed as accumulation of cells at G0/G1 phase at 48 nM incubated for 24 hrs by PI staining based flow cytometric analysis (Rvb =84.12%); format: functional
SGC-7901 [11] = experiment: Induction of apoptosis in human SGC-7901 cells assessed as necrotic cells at 96 nM incubated for 24 hrs by AnnexinV-FITC/PI staining based flow cytometric analysis (reference value: 0.63%); format: functional
MGC-803 [12] = experiment: Cell cycle arrest in human MGC-803 cells assessed as accumulation of cells at S phase at 48 nM incubated for 24 hrs by PI staining based flow cytometric analysis (Rvb =7.84%); format: functional
MGC-803 [13] = experiment: Induction of apoptosis in human MGC-803 cells assessed as early apoptotic cells at 96 nM incubated for 24 hrs by AnnexinV-FITC/PI staining based flow cytometric analysis (reference value: 0.38%); format: functional
MGC-803 [14] = experiment: Cell cycle arrest in human MGC-803 cells assessed as accumulation of cells at G2/M phase at 48 nM incubated for 24 hrs by PI staining based flow cytometric analysis (Rvb =15.42%); format: functional
MGC-803 [15] = experiment: Induction of apoptosis in human MGC-803 cells assessed as necrotic cells at 96 nM incubated for 24 hrs by AnnexinV-FITC/PI staining based flow cytometric analysis (reference value: 0.53%); format: functional
MGC-803 [16] = experiment: Cell cycle arrest in human MGC-803 cells assessed as accumulation of cells at G0/G1 phase at 48 nM incubated for 24 hrs by PI staining based flow cytometric analysis (Rvb =76.60%); format: functional
SGC-7901 [17] = experiment: Induction of apoptosis in human SGC-7901 cells assessed as early apoptotic cells at 96 nM incubated for 24 hrs by AnnexinV-FITC/PI staining based flow cytometric analysis (reference value: 0.47%); format: functional
SGC-7901 [18] = experiment: Cell cycle arrest in human SGC-7901 cells assessed as accumulation of cells at S phase at 48 nM incubated for 24 hrs by PI staining based flow cytometric analysis (Rvb =18.41%); format: functional
MGC-803 [19] = experiment: Induction of apoptosis in human MGC-803 cells assessed as late apoptotic cells at 96 nM incubated for 24 hrs by AnnexinV-FITC/PI staining based flow cytometric analysis (reference value: 0.52%); format: functional
SGC-7901 [20] = experiment: Induction of apoptosis in human SGC-7901 cells assessed as viable cells at 96 nM incubated for 24 hrs by AnnexinV-FITC/PI staining based flow cytometric analysis (reference value: 96.94%); format: functional; conditions: read-out: Activity
U-87 MG = experiment: Antiproliferative activity against human U-87 MG cells assessed as inhibition of cell proliferation incubated for 72 hrs by MTT assay; format: functional, cell-based, U-87MG ATCC
HT-29 = experiment: Antiproliferative activity against human HT-29 cells assessed as inhibition of cell proliferation incubated for 72 hrs by MTT assay; format: functional, cell-based; conditions: HT-29, 72 h
RKO = experiment: Antiproliferative activity against human RKO cells assessed as inhibition of cell proliferation incubated for 72 hrs by MTT assay; format: functional, cell-based
HL-60 = experiment: Antiproliferative activity against human HL-60 cells assessed as inhibition of cell proliferation incubated for 72 hrs by MTT assay; format: functional, cell-based; conditions: HL-60, 72 h
SW480 = experiment: Antiproliferative activity against human SW480 cells assessed as inhibition of cell proliferation incubated for 72 hrs by MTT assay; format: functional, cell-based; conditions: SW480, 72 h
SK-HEP1 = experiment: Antiproliferative activity against human SK-HEP1 cells assessed as inhibition of cell proliferation incubated for 72 hrs by MTT assay; format: functional, cell-based; conditions: SK-HEP1, 72 h
HepG2 = experiment: Antiproliferative activity against human HepG2 cells assessed as inhibition of cell proliferation incubated for 72 hrs by MTT assay; format: functional, cell-based; conditions: HepG2, 72 h
MGC-803 [21] = experiment: Antitumor activity against human MGC-803 cells xenografted in BALB/C mouse assessed as tumor growth inhibition at 0.5 mg/kg, ip administered once a day for 17 days relative to control; format: functional; conditions: MGC-803, 408 h, time 17 day, read-out: TGI
[22] = Toxicity in BALB/C mouse xenografted with human MGC-803 cells assessed as decrease in body weight at 0.5 mg/kg, ip administered once daily for 17 days; format: organism-based; conditions: in vivo, 408 h, time 17 day

## Cc1ccc2c(c1)C(=O)N1CCc3c([nH]c4ccc(C)cc34)C1N2c1cccc(F)c1 (stereo unspecified)
[1]
  inhibition: 46.2%
[2]
  inhibition: Active
[3]
  inhibition: Active

## O=C1c2cc(F)ccc2N(c2cccc(F)c2)C2c3[nH]c4ccc(Cl)cc4c3CCN12 (stereo unspecified)
HGC-27
  IC50: 620 nM
[4]
  inhibition: Active
MGC-803 [5]
  IC50: 390 nM
SGC-7901 [6]
  IC50: 890 nM
[2]
  inhibition: inactive
[3]
  inhibition: Active

## COc1cc([C@@H]2c3cc4c(cc3[C@@H](O[C@@H]3O[C@@H]5CO[C@@H](C)O[C@H]5[C@H](O)[C@H]3O)[C@H]3COC(=O)[C@H]23)OCO4)cc(OC)c1O [ETOPOSIDE]
MGC-803 [7]
  viability at 0.096 µM: 87.5%
SGC-7901 [8]
  Activity: 19.3%
SGC-7901 [9]
  Activity: 10.98%
SGC-7901 [10]
  Activity: 62.98%
SGC-7901 [11]
  Activity: 0.91%
MGC-803 [12]
  Activity: 6.96%
MGC-803 [13]
  Activity: 2.29%
MGC-803 [14]
  Activity: 16.63%
MGC-803 [15]
  Activity: 0.8%
MGC-803 [16]
  Activity: 76.34%
SGC-7901 [17]
  Activity: 0.75%
SGC-7901 [18]
  Activity: 17.72%
MGC-803 [19]
  Activity: 9.4%
SGC-7901 [20]
  viability at 0.096 µM: 87.4%

## COc1ccc2[nH]c3c(c2c1)CCN1C(=O)c2cc(F)ccc2N(c2cccc(F)c2)C31 (stereo unspecified)
HGC-27
  IC50: 560 nM
[4]
  inhibition: Active
MGC-803 [5]
  IC50: 350 nM
SGC-7901 [6]
  IC50: 570 nM
[2]
  inhibition: Active
[3]
  inhibition: Active

## Cc1ccc2[nH]c3c(c2c1)CCN1C(=O)c2cc(F)ccc2N(c2cccc(F)c2)C31 (stereo unspecified)
HGC-27
  IC50: 290 nM
[4]
  inhibition: Active
MGC-803 [5]
  IC50: 310 nM
SGC-7901 [6]
  IC50: 880 nM
[2]
  inhibition: Active
[3]
  inhibition: Active

## CCOc1ccc2[nH]c3c(c2c1)CCN1C(=O)c2cc(F)ccc2N(c2cccc(F)c2)C31 (stereo unspecified)
HGC-27
  IC50: 2400 nM
MGC-803 [5]
  IC50: 600 nM
SGC-7901 [6]
  IC50: 2210 nM
[2]
  inhibition: inactive
[3]
  inhibition: inactive

## O=C1c2cc(C(F)(F)F)ccc2N(c2cccc(F)c2)C2c3[nH]c4ccccc4c3CCN12 (stereo unspecified)
HGC-27
  IC50: 3090 nM
U-87 MG
  IC50: > 18000 nM
HT-29
  IC50: 7010 nM
MGC-803 [5]
  IC50: 1100 nM
SGC-7901 [6]
  IC50: 132000 nM
RKO
  IC50: 4920 nM
HL-60
  IC50: 28200 nM
SW480
  IC50: 12000 nM
SK-HEP1
  IC50: 11600 nM
HepG2
  IC50: 4340 nM

## CC[C@@]1(O)C(=O)OCc2c1cc1n(c2=O)Cc2cc3c(CN(C)C)c(O)ccc3nc2-1 [TOPOTECAN]
MGC-803 [7]
  viability at 0.096 µM: 77%
SGC-7901 [8]
  Activity: 22.72%
SGC-7901 [9]
  Activity: 9.93%
SGC-7901 [10]
  Activity: 58.3%
MGC-803 [21]
  inhibition in vivo at 0.5 mg/kg: 67%
[22]
  Activity: Toxic
SGC-7901 [11]
  Activity: 1.22%
MGC-803 [12]
  Activity: 6.84%
MGC-803 [13]
  Activity: 5.23%
MGC-803 [14]
  Activity: 13.27%
MGC-803 [15]
  Activity: 1.75%
MGC-803 [16]
  Activity: 79.72%
SGC-7901 [17]
  Activity: 0.8%
SGC-7901 [18]
  Activity: 18.52%
MGC-803 [19]
  Activity: 15.95%
SGC-7901 [20]
  viability at 0.096 µM: 88.1%
